Tests used:
Design in all cases: species or system human
[1] = Hair fatigue breakage of bleached hair, Dia-stron Automatic Cyclic Tester (CYC800), Weibull analysis; settings: simple hair conditioner (Table 3), 2.0%; Constant Stress method; vehicle 14 190 cycles; FIG. 8
Experimental: A tress section of human Euro-Natural hair, remis, double-drawn with a length of 23 cm and a width of 2.0 cm with a weight of 2.0 g and dark-brown color was wetted under a tap of running water over the course of 10 seconds. 8 g of a 30% strength aqueous hydrogen peroxide solution were mixed with 4 g of Basler Blond Claire bleaching powder, 2 mL of a 25% strength aqueous ammonia solution were added, and combined again and 8 g of the resulting paste were massaged into the tress section with the help of a comb and the protected hands. […]
Afterwards, per treatment method 40 hairs were removed from the tress section and in each case the middle section of a hair with a length of 3 cm was crimped between two brass sleeves with plastic coating on the inside. The average area of each individual hair was measured using a Dia-stron FDAS760 fibre dimensional system and UvWin PC application software. […]
In order to measure the hair fatigue breakage, the hair samples were transferred to the sample cassette of a Dia-stron Automatic Cyclic Tester (CYC800) and climatized at 22° C. and 50-55% rel. atmospheric humidity. […] The characteristic life span a of a hair fibre is calculated by means of Weibull analysis. […]

[2] = Repair of bleached hair: tensile elongation forces by Dia-stron Tensile Tester MTT 670
Experimental: A tress section of human Euro-Natural hair, remis, double-drawn with a length of 23 cm and a width of 2.0 cm with a weight of 2.0 g and dark-brown color was wetted under a tap of running water over the course of 10 seconds. 8 g of a 30% strength aqueous hydrogen peroxide solution were mixed with 4 g of Basler Blond Claire bleaching powder, 2 mL of a 25% strength aqueous ammonia solution were added, and combined again and 8 g of the resulting paste were massaged into the tress section with the help of a comb and the protected hands. After a contact time of 30 minutes at room temperature, the tress section was washed for 2 minutes under running tap water at ca. 35° C. and then dried by means of an electronic hair dryer for 3 minutes while combing at the same time. The entire procedure was repeated once starting from the wetting of the tress section.
(§1) Afterwards, per treatment method 40 hairs were removed from the tress section and in each case the middle section of a hair with a length of 3 cm was crimped between two brass sleeves with plastic coating on the inside. The average area of each individual hair was measured using a Dia-stron FDAS760 fibre dimensional system and UvWin PC application software. The hair samples were then transferred to the sample cassette of a Dia-stron Tensile Tester MTT 670 and admixed in each case with demineralized water adjusted to pH 7 using citric acid. A measurement of the individual hair strands with the Single Fiber Method (Extension 20%, Rate 20 mm/min, Gauge Force 2, Maximum Force 200, Break Threshold 5, Sample Size 30 mm) was started. The hair samples were then removed from the sample cassette and covered with demineralized water in a plastic bowl.
(§2) For the treatment with hair conditioner, the water was removed after 30 minutes and the hair samples were covered with hair conditioner. After a contact time of 30 minutes, each individual hair sample was washed under a stream of running water at ca. 35° C. for 6 seconds. The hair samples were dried overnight at 22° C. and 50% relative atmospheric humidity.
For the treatment with shampoo, the water was removed after 30 minutes and the hair samples were covered with shampoo. After a contact time of 5 minutes, each individual hair sample was washed under a stream of running water at ca. 35° C. for 6 seconds. The hair samples were briefly dried by means of an electronic hair dryer and the shampoo treatment was repeated four times.
After the particular treatment, the measurement of the individual hair samples starting with the transfer to the sample cassette of the Dia-stron Tensile Tester MTT 670 was repeated.
The evaluation of the data takes place by reference to the parameters modulus of elasticity (E modulus), Load and/or Work. If a hair is pulled, the elongation is initially proportional to the applied force (Hooke's range). The modulus of elasticity describes the applied force per elongation (in Newton/mm^2) in the Hooke's range and therefore represents the tensile strength of a hair fibre. As soon as the hair has been elongated to a length of approximately 2%, it further deforms very rapidly up to ca. 25-30% of its original length, where the increase in the force required for this is minimal (Yield range). The parameter Load corresponds to the force (in Newtons) which is required to elongate the hair up to 15% and the parameter Work indicates the work required to elongate the hair from 0-15% (in Joules).

[3] = Protection of hair against thermal stress (smoothing iron): denaturation temperature by differential scanning calorimetry; settings: preventative treatment with active ingredient solution pH 5.5; vehicle 137.9° C.; FIG. 12
Experimental: (§3) A tress section of human Euro-Natural hair, remis, double-drawn with a length of 23 cm and a width of 2.0 cm with a weight of 2.0 g and dark-brown color was wetted under a tap of running water over the course of 10 seconds. Then, 2 mL of shampoo (28.6% Texapon NSO in dist. water) were massaged into the hair for 30 seconds, washed out for a further 30 seconds under running tap water at ca. 35° C., and the hair tress was squeezed between two fingers and combed six times. The hair tress was dipped for 1 minute in 300 mL of active ingredient solution (active ingredient, demin. water, lactic acid, pH 5.5), squeezed between two fingers and rinsed for 30 seconds under running tap water at ca. 35° C. and combed. The hair was dried using an electronic hair dryer for 3 minutes with simultaneous combing and then stored overnight in a climatically controlled chamber (37° C., 50% rel. atmospheric humidity).
The tress section was drawn four times in each case for 30 seconds through a smoothing iron (˜210° C.), which was pressed onto the tress by means of a 630 g weight. This treatment was repeated a total of five times from the wetting of the hair and shampoo treatment (in total 20 draws through the smoothing iron). […]

[4] = Repair of alkaline smoothed hair: tensile elongation forces by Tensile Tester; settings: simple hair conditioner (Table 8); 0.5% DD/LL 1:1, 0.5% L-methionine or 2.0% wheat protein (25% active); vehicle 0.43 mN; FIG. 9
Experimental: as §1
as §2, with “humidity. […]” for “humidity.”
(§4) Afterwards, 40 hairs were removed from the tress section and measured as described in Example 1. […]

[5] = Repair of reductively smoothed hair: tensile elongation forces by Tensile Tester; settings: simple hair conditioner (Table 9); 0.5% DD/LL 1:1 or 2.0% wheat protein (25% active); FIG. 10
Experimental: as §1
as §2, with “humidity. […]” for “humidity.”
as §4

[6] = Protection of hair against thermal stress (smoothing iron): hair fatigue breakage, Automatic Cyclic Tester; settings: FIG. 11
Experimental: as §3, with “The hair was dried using an electronic hair dryer for 3 minutes with simultaneous combing and then stored overnight in a climatically controlled chamber (37° C., 50% rel. atmospheric humidity).” left out
Afterwards, 50 hairs were removed from the tress section and in each case the middle section of a hair with a length of 3 cm was crimped between two brass sleeves with plastic coating on the inside. The average area of each individual hair was measured using a Dia-stron FDAS760 fibre dimensional system and UvWin PC application software.
The hair samples were then transferred to the sample cassette of a Dia-stron Automatic Cyclic Tester (CYC800) and climatized at 22° C. and 50-55% rel. atmospheric humidity. […] The probability of survival and the characteristic life span a of a hair fibre were calculated by means of Weibull analysis.

Row | Structure (SMILES) | characteristic life span α: number of cycles in which 63.2% of all hair fibres tear [1] | improvement of Load at 15% elongation (Load 15%) ([2]; expanded hair conditioner (Table 4), 1.0% DD/LL/LD/DL 35:35:65:65 or 4.0% wheat protein (25% active), vehicle 1.28 mN, FIG. 5) [mN] | improvement of Work up to 15% elongation (Work 15%) ([2]; expanded hair conditioner (Table 4), 1.0% DD/LL/LD/DL 35:35:65:65 or 4.0% wheat protein (25% active), vehicle 3.51 μJ, FIG. 6) [µJ] | improvement of Load at 15% elongation (Load 15%) ([2]; shampoo (Table 5), 1.00% DD/LL/LD/DL 35:35:65:65, contact 5 minutes, five treatments, vehicle 0.46 mN, FIG. 7) [mN] | improvement of Work up to 15% elongation (Work 15%) ([2]; shampoo (Table 5), 1.00% DD/LL/LD/DL 35:35:65:65, contact 5 minutes, five treatments, vehicle 2.46 μJ) [µJ] | improvement of Load at 15% elongation (Load 15%) ([2]; simple hair conditioner (Table 3), 2.0% active, DD/LL/LD/DL = 1:1:1:1, contact 30 minutes, vehicle 2.65 mN, FIG. 3) [mN] | improvement of Work up to 15% elongation (Work 15%) ([2]; simple hair conditioner (Table 3), 2.0% active, DD/LL/LD/DL = 1:1:1:1, contact 30 minutes, vehicle 11.0 μJ, FIG. 4) [µJ] | hair denaturation temperature (TD) [3] [°C] | improvement of Load at 15% elongation (Load 15%) [4] [mN] | improvement of Load at 15% elongation (Load 15%) relative to vehicle [5] [mN] | number of cycles at which 20% of the hair remain intact ([6]; preventative treatment with active ingredient solution pH 5.5, DD/LL weight ratio 1:1, vehicle 5500) | number of cycles at which 10% of the hair did not tear ([6]; preventative treatment with active ingredient solution pH 5.5, vehicle 8000) | repair effect (Load 15%, Work 15%) compared with vehicle hair conditioner, in words ([2]; simple hair conditioner (Table 3), 2.0% raw material, FIGS. 3 and 4)
1 | CSCCC(N)C(=O)NC(CCSC)C(=O)O (racemic) [DD/LL/LD/DL-methionyl-methionine] | 33 980 cycles | 4.85 | 18.2 | 1.33 | 2.58 | 4.14 | 19.4 |  |  |  |  |  | 
2 | CSCCC(N)C(=O)NC(CCSC)C(=O)O (centres unmarked) [DD/LL-methionyl-methionine] |  |  |  |  |  |  |  | 139.9 | 3.76 | 0.96 | 10 000 cycles | 22 000 cycles | 
3 | CSCC[C@H](N)C(=O)O [L-methionine] |  |  |  |  |  |  |  |  | 2.73 |  |  |  | could be further increased neither

Reference: patent publication US9456973B2, “Methionyl-methionine stereoisomers and use thereof in cosmetics” (EVONIK DEGUSSA GMBH, priority 2013, dated 2016)
